Eight molecules from ChEMBL document CHEMBL1135194, “Inhibition of Src kinase activity by 4-anilino-7-thienyl-3-quinolinecarbonitriles” (Bioorg Med Chem Lett, 2002) can be followed below.

In general, IC50 refers to the concentration needed to halve the response being measured. High values mean lower potency, low ones higher potency.

The target in the experiment is Proto-oncogene tyrosine-protein kinase Src (Homo sapiens, UniProt P12931). Put plainly: Inhibition of Src kinase in enzymatic assay.
Proto-oncogene tyrosine-protein kinase Src, sequence (P12931 2-536 limits assumed): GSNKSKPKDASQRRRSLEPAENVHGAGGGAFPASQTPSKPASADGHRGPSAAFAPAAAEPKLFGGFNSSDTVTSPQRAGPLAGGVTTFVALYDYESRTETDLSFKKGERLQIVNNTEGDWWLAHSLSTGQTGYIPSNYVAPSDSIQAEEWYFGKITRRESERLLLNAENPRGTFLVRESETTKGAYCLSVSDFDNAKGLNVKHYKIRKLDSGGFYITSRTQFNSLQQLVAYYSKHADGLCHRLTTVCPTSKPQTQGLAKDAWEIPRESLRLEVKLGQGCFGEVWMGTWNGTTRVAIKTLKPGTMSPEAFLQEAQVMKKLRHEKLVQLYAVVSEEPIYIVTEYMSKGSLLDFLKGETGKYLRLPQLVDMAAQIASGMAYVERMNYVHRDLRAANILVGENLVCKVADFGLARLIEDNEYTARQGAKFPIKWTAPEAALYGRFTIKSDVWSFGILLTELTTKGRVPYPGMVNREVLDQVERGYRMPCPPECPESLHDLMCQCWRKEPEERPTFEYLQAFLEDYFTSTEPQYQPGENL
As for `COc1cc(Nc2c(C#N)cnc3cc(-c4csc(CN5CCC(O)CC5)c4)ccc23)c(Cl)cc1Cl`, the concentration for half-maximal inhibition (IC50) amounted to 1.4 nM. In the case of `COc1cc(Nc2c(C#N)cnc3cc(-c4csc(CN5CCOCC5)c4)ccc23)c(Cl)cc1Cl` it was 2.7 nM; in that of `COc1cc(Nc2c(C#N)cnc3cc(-c4cscc4CN4CCOCC4)ccc23)c(Cl)cc1Cl`, 240 nM; in that of `COc1cc(Nc2c(C#N)cnc3cc(-c4cc(CN5CCCCC5)cs4)ccc23)c(Cl)cc1Cl`, 4.2 nM. Next, `COc1cc(Nc2c(C#N)cnc3ccc(-c4csc(CN5CCOCC5)c4)cc23)c(Cl)cc1Cl`: 280 nM; `COc1cc(Nc2c(C#N)cnc3cc(-c4cc(CN5CCOCC5)cs4)ccc23)c(Cl)cc1Cl`: 5.7 nM. For `COc1cc(Nc2c(C#N)cnc3cc(-c4ccsc4CN4CCOCC4)ccc23)c(Cl)cc1Cl`, inhibition was half-maximal at 440 nM (IC50).

On to `COc1cc(Nc2c(C#N)cnc3cc(-c4ccc(CN5CCOCC5)s4)ccc23)c(Cl)cc1Cl`, for which the half-inhibitory concentration (IC50) stood at 2.5 nM.
